# Measurements reported in patent publication US7579006B2, “Method of treating immune pathologies with low dose estrogen” (Oregon Health and Science University, priority 2000, dated 2009).
# Assays:
# [1] = tested on: IFN-γ KO mice; experiment: EAE induced with MOG 35-55 in IFN-γ KO mice (clinical, histopathology); assay type: in vivo; conditions: 2.5 mg pellet
# Experimental: (§1) Estrogen treatment. Sixty-day release pellets containing 2.5 mg of 17β-estradiol (E2) or vehicle were implanted subcutaneously (s.c) in the scapular region behind the neck using a 12-gauge trochar as described by the manufacturer (Innovative Research of America, Sarasota, Fla.). The mice were implanted one week prior to immunization with MOG 35-55. The concentration of E2 expected in the serum is between 1,500-2,000 pg/ml, which is approximately 5 times less than the levels found during pregnancy.
# (§2) Induction of EAE. C57BL/6 and cytokine deficient mice were inoculated s.c in the flanks with 0.2 ml of an emulsion containing 200 μg of MOG 35-55 in saline and an equal volume of complete Freund's Adjuvant (CFA) containing 400 μg of Mycobacterium tuberculosis H37RA (Difco Laboratories, Detroit, Mich.). Disease induction required i.v. administration of pertussis toxin on the day of immunization (25 ng/mouse) and 2 days later (67 ng/mouse). The mice were assessed daily for clinical signs of EAE according to the 7 point scale described in Example I.
# (§3) Histopathology. Histopathologic assessment of spinal column section was performed essentially as described in Example I, except that sections were stained with either luxol fast blue-periodic acid schiff-hematoxylin or silver nitrate prior to analysis.
# (§4) Statistical analysis. Significant differences in incidence and mortality between untreated and E2 treated mice were assessed by Chi-square analysis. Difference in onset was determined using the two-tailed Student t test. Differences in peak score and cumulative disease index (CDI) were assessed by the Mann-Whitney test. Statistical significance of the frequency of cytokine secreting cells was analyzed using Student's t test for comparisons of two means. Differences in the expression of chemokine and cytokine mRNA were also determined using the Student t test. Values of p<0.05 were considered significant.
# [2] = tested on: Lymph node CD3+ T cells; experiment: FACS of chemokine receptors on lymph node CD3+ T cells; assay type: in vivo, mice; conditions: 0.36 mg pellet
# Experimental: Flow cytometry. Lymph node cells from sham and 17β-estradiol treated animals with EAE were washed with PBS/2% FCS/0.2% NaN3 and first incubated on ice for 30 min with Fcγ III/II receptor blocking monoclonal antibody (PharMingen), then stained with PE-conjugated anti-CD3 (PharMingen). After 20 min of incubation with anti-CD3, the cells were fixed and permablized using Cytofix/Cytoperm (PharMingen). Subsequently, cells were incubated with anti-CCR1, anti-CCR2, anti-CCR3, anti-CCR4 and anti-CCR5 goat anti-mouse polyclonal antibodies (Santa Cruz Biotechnology Inc.; USA) for 30 min on ice. After washing, cells were stained with FITC-conjugated anti-goat monoclonal antibodies (Sigma) for an additional 30 min on ice. Cells were analyzed using a FACS-Scan (Becton Dickinson). Propidium iodide and forward/side scatter gating were used to exclude dead cells.
# [3] = tested on: IL-4 KO mice; experiment: EAE induced with MOG 35-55 in IL-4 KO mice (clinical, histopathology); assay type: in vivo; conditions: 2.5 mg pellet
# Experimental: as §1, §2, §3, §4
# [4] = tested on: DLN cells; experiment: PLP 139-151 induced cytokine production by DLN cells (ELISA); assay type: in vivo, mice; conditions: 48-72 hours after PLP 139-151 stimulation
# Experimental: Cytokine detection by ELISA. DLN cells were cultured at 4×10^6/ml and stimulated with the appropriate antigen in 24 well culture plates. Cell culture supernatants were recovered between 48-72 hr and frozen at −70° C. until needed for the cytokine assay. Measurement of cytokines was performed by ELISA using cytokine specific capture and detection antibodies (Pharmingen). Standard curves for each assay were generated using recombinant mouse cytokines (Pharmingen), and the concentration of cytokines in the cell supernatants was determined by interpolation from the appropriate standard curve. IFN-γ, TNF-α and IL-12 were chosen as representative Th1 cytokines, while IL-4 and IL-10 were measured as representative Th2 cytokines.
# To determine if low dose estrogen therapy altered cytokine secretion patterns, DLN cells were prepared from individual mice at the peak of clinical EAE and cytokine levels were measured 48-72 hours after in vitro stimulation with PLP 139-151. IFN-γ, IL-12, and TNF-α were used as representative Th1 cytokines while IL-4, and IL-10 were used as representative Th2 cytokines. […] Despite the lack of statistical significance, the trend towards higher Th1 and lower Th2 cytokines points towards a subtle shift in the Th1/Th2 balance. The shift can be seen more clearly when the cytokine response of each individual mouse is plotted as a ratio of IFN-γ to IL-10 (FIG. 5C). There was a marked decrease in the frequency of high Th1 responder mice in the E2 and E3 treated groups when compared to placebo animals that approached significance (p=0.09 for the 5.0 mg E3 treated mice). Additionally, no informative trends were detected in IL-4 secretion (FIG. 5D), and TNF-α secretion was very often below the limits of detection for the assay (<31.25 pg/ml). Modest changes in cytokine responses induced by low dose estrogen therapy were also observed in the B10.PL model and were consistent with the data described for the SJL model.
# [5] = tested on: T cells from naïve BV8S2 transgenic female mice; experiment: In vitro effect of 17β-estradiol on T cells from naïve BV8S2 transgenic female mice; assay type: cell-based
# Experimental: Proliferation assay. Proliferation responses of splenic T cells were determined essentially as described in Example II, except that antigen was used at an optimal concentration of 50 μg/ml.
# Measurement of cytokine secretion. Lymph nodes of naïve BV8S2 TCR transgenic females were suspended at 4×10^6 cells/ml in stimulation medium with antigen and with or without 2000 pg/ml of 17β-estradiol. Cell culture supernatants were recovered at 72 hours and frozen at −70 C until used. Measurement of cytokines was performed by ELISA essentially as described in Example II.
# To evaluate 17β-estradiol effects on antigen specific T cells, splenocytes from naïve BV8S2 single transgenic female mice were stimulated with MBP-Ac1-11 peptide or BV8S2 protein in the presence or absence of a range of 17β-estradiol concentrations.
# [6] = tested on: Tg female mice; experiment: EAE in BV8S2 transgenic (Tg) female mice; assay type: in vivo; conditions: for inhibition of EAE: Tg females
# [7] = 0.36 mg pellet, intact Tg females (Example III)
# [8] = non-ovariectomized Tg females, BV8S2 with weekly boosting, E2 0.36 mg pellets
structure (smiles),measurement,setting,value
C[C@]12CC[C@@H]3c4ccc(O)cc4CC[C@H]3[C@@H]1CC[C@@H]2O [17β-estradiol],Inflammatory foci/section,"[1]; IFN-γKO, spinal cord",0.0 ± 0.0 Foci/Section
same,CDI,[1]; IFNγ KO,19.3 ± 15.9
same,Incidence,[1]; IFNγ KO,8/10
same,Mortality,[1]; IFNγ KO,1/10
same,Onset,[1]; IFNγ KO,21.8 ± 2.7
same,Peak Score,[1]; IFNγ KO,4.5 ± 1.2
same,CCR2 staining of lymph node CD3+ T cells,[2],No difference
same,percentage of CCR5 positive lymph node CD3+ T cells,"[2]; sham 35+4, p=0.03, in %",27+2
same,percentage of CCR1 positive lymph node CD3+ T cells,"[2]; sham 91+6%, p=0.02",77+2%
same,CDI,[3]; IL-4 KO,18.4 ± 22.2
same,Incidence,[3]; IL-4 KO,8/11
same,Mortality,[3]; IL-4 KO,0/11
same,Onset,[3]; IL-4 KO,20.6 ± 4.9
same,Peak Score,[3]; IL-4 KO,4.4 ± 1.0
same,Inflammatory foci/section,"[3]; IL-4KO, spinal cord",0.0 ± 0.0 Foci/Section
same,IL-10 secretion by DLN cells,[4],modest increase
same,IL-12 secretion by DLN cells,[4],small decrease
same,secretion of IFN-γ by DLN cells,[4]; p>0.10,consistently lower
same,IL-12 or IL-10 secretion,"[5]; in vitro, 2,000 pg/ml, MBP-Ac1-11 stimulated LN cells",no effects
same,reduction of secreted IFN-γ protein,"[5]; in vitro, 2,000 pg/ml, MBP-Ac1-11 stimulated LN cells, p<0.005",50%
same,native T cell proliferation response to MBP-Ac1-11 peptide,"[5]; in vitro, 15-2,000 pg/ml",no significant effect
same,native proliferation response to BV8S2 protein,"[5]; in vitro, 15-2,000 pg/ml",modest enhancing effect
same,IFN-γ or other cytokine secretion,"[5]; in vitro, lower doses (150-400 pg/ml)",no inhibitory effects
same,CDI,[6]; [7],40.4 ± 7.1
same,Incidence,[6]; [7],15/18
same,Onset,[6]; [7],17.4 ± 1.8
same,Peak,[6]; [7],2.5 ± 0.5
same,inhibition of EAE,[6]; 0.36 mg pellets,only moderate inhibition
same,inhibition of EAE,[6]; 15 mg pellets,marked but incomplete inhibition of EAE
same,Average CDI (10-30),[6]; [8],37.3 ± 6.2^A
same,Incidence,[6]; [8],25/33
same,Mortality,[6]; [8],1/33
same,Onset,[6]; [8],15.1 ± 2.1A
same,Peak,[6]; [8],3.6 ± 0.7^A
